Test results published in US7138361B2, “Herbicidal heterocycles” (E. I. du Pont de Nemours and Company, priority 2000, dated 2006).

How the values were obtained:
Type in all cases: in vivo
[1] = test system: barnyardgrass (Echinochloa crus-galli); experiment: Test C flooded paddy test; conditions: for Barnyardgrass plant response rating: Flooded Paddy, Rate 500 g/ha, scale 0 to 100, 0 no effect, 100 complete control; for Plant response rating, Barnyardgrass / Plant response rating (scale 0 to 100), Barnyardgrass: flooded paddy test; for Plant response rating, Barnyardgrass: scale 0 to 100 (0 no effect, 100 complete control); for Plant response rating (scale 0 to 100), Barnyardgrass: Rate 62 g/ha, visually evaluated after 12 to 14 days, 0 = no effect, 100 = complete control
How it was run: (§1)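 Flooded paddy, 2-leaf stage at treatment. Readout: visual % control vs untreated, 0–100, at 12–14 d in greenhouse.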

[2] = test system: smallflower flatsedge (Cyperus difformis); experiment: Test C flooded paddy test; conditions: for Flatsedge plant response rating: Flooded Paddy, Rate 500 g/ha, scale 0 to 100, 0 no effect, 100 complete control; for Plant response rating, Flatsedge / Plant response rating (scale 0 to 100), Flatsedge: flooded paddy test; for Plant response rating, Flatsedge: scale 0 to 100 (0 no effect, 100 complete control); for Plant response rating (scale 0 to 100), Flatsedge: Rate 62 g/ha, visually evaluated after 12 to 14 days, 0 = no effect, 100 = complete control
How it was run: as §1

[3] = test system: rice (Oryza saliva); experiment: Test C flooded paddy test; conditions: for Rice plant response rating: Flooded Paddy, Rate 500 g/ha, scale 0 to 100, 0 no effect, 100 complete control; for Plant response rating, Rice / Plant response rating (scale 0 to 100), Rice: flooded paddy test; for Plant response rating, Rice: scale 0 to 100 (0 no effect, 100 complete control); for Plant response rating (scale 0 to 100), Rice: Rate 62 g/ha, visually evaluated after 12 to 14 days, 0 = no effect, 100 = complete control
How it was run: as §1

[4] = test system: duck salad (Heteranthera limosa); experiment: Test C flooded paddy test; conditions: for Ducksalad plant response rating: Flooded Paddy, Rate 500 g/ha, scale 0 to 100, 0 no effect, 100 complete control; for Plant response rating, Ducksalad / Plant response rating (scale 0 to 100), Ducksalad: flooded paddy test; for Plant response rating, Ducksalad: scale 0 to 100 (0 no effect, 100 complete control); for Plant response rating (scale 0 to 100), Ducksalad: Rate 62 g/ha, visually evaluated after 12 to 14 days, 0 = no effect, 100 = complete control
How it was run: as §1

[5] = test system: Sunflower; experiment: Test C preemergence; conditions: Rate 62 g/ha, scale 0 to 100
[6] = test system: Sunflower; experiment: Test C preemergence; conditions: Rate 250 g/ha, scale 0 to 100, 0 no effect, 100 complete control
[7] = test system: common ragweed (Ambrosia elatior); experiment: Test C preemergence; conditions: for Plant response rating (0 to 100), Ragweed, Common: Rate 500 g/ha, visual evaluation after 12 to 14 days
How it was run: (§2)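 Formulation: non-phytotoxic solvent mix incl. surfactant. Pre: applied right after planting. Post: 1–4-leaf seedlings. Read: visual 0–100, day 12–14, greenhouse.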

[8] = test system: Surinam grass (Brachiaria decumbens); experiment: Test C preemergence; conditions: for Plant response rating (0 to 100), Surinam grass: Rate 500 g/ha, visual evaluation after 12 to 14 days
How it was run: as §2

[9] = test system: Sunflower; experiment: Test C preemergence; conditions: Rate 125 g/ha; scale 0 to 100, 0 no effect, 100 complete control
[10] = test system: pigweed (Amaranthus retroflexus); experiment: Test B postemergence
How it was run: (§3)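 Pre: seeded pots sprayed, chemical in non-phytotoxic solvent/surfactant mix. Post: plants 2–18 cm, 1–4 leaf, same formulation. Greenhouse 13–15 d; visual % control vs untreated, 0–100 scale.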

[11] = test system: giant foxtail (Setaria faberii); experiment: Test B postemergence
How it was run: as §3

[12] = test system: lambsquarters (Chenopodium album); experiment: Test B postemergence
How it was run: as §3

[13] = test system: barnyardgrass (Echinochloa crus-galli); experiment: Test B postemergence
How it was run: as §3

[14] = test system: crabgrass (Digitaria sanguinalis); experiment: Test B postemergence
How it was run: as §3

[15] = test system: corn (Zea mays); experiment: Test B postemergence
How it was run: as §3

[16] = test system: blackgrass (Alopecurus myosuroides); experiment: Test B postemergence
How it was run: as §3

[17] = test system: velvetleaf (Abutilon theophrasti); experiment: Test B postemergence
How it was run: as §3

[18] = test system: cocklebur (Xanthium strumarium); experiment: Test B postemergence
How it was run: as §3

[19] = test system: wild oat (Avena fatua); experiment: Test B postemergence
How it was run: as §3

[20] = test system: Surinam grass (Brachiaria decumbens); experiment: Test B postemergence
How it was run: as §3

[21] = test system: wheat (Triticum aestivum); experiment: Test B postemergence
How it was run: as §3

[22] = test system: morning glory (Ipomoea hederacea); experiment: Test B postemergence
How it was run: as §3

[23] = Rate 125 g/ha, scale 0 to 100, 0 no effect, 100 complete control
[24] = preemergence, Rate 62 g/ha, scale 0 to 100
[25] = preemergence, Rate 250 g/ha, scale 0 to 100, 0 no effect, 100 complete control
[26] = Rate 500 g/ha, scale 0 (no effect) to 100 (complete control), 13 to 15 days
[27] = Rate 500 g/ha, scale 0 to 100, 0 is no effect, 100 is complete control, 13 to 15 days

CCC(C)c1ccn(C2CCN(c3ccc(F)c(C(F)(F)F)c3)C2=O)n1 (centres unmarked) [Compound 145]
25: Plant response rating, Ducksalad ([4]; Rate 125 g/ha)
30: Plant response rating (scale 0 to 100), Barnyardgrass [1] | Plant response rating, Velvetleaf [17, 26]
90: Plant response rating, Surinam grass [8, 25] | Plant response rating, Barnyardgrass [13, 26]
0: Plant response rating, Rice ([3]; Rate 125 g/ha) | Plant response rating (scale 0 to 100), Rice [3] | Plant response rating, Sunflower [5] | Plant response rating, Ragweed, Common [7, 23] | Plant response rating, Ragweed, Common [7, 24] | Plant response rating, Ragweed, Common [7, 25] | Plant response rating, Surinam grass [8, 24] | Plant response rating, Sunflower [9] | Plant response rating, Pigweed [10, 23] | Plant response rating, Foxtail, Giant [11, 23] | Plant response rating, Barnyardgrass [13, 23] | Plant response rating, Crabgrass [14, 23] | Plant response rating, Crabgrass [14, 26] | Plant response rating, Corn [15, 23] | Plant response rating, Corn [15, 26] | Plant response rating, Blackgrass [16, 23] | Plant response rating, Blackgrass [16, 26] | Plant response rating, Velvetleaf [17, 23] | Plant response rating, Cocklebur [18, 23] | Plant response rating, Cocklebur [18, 26] | Plant response rating, Wild Oat [19, 23] | Plant response rating, Wild Oat [19, 26] | Plant response rating, Surinam grass [20, 23] | Plant response rating, Surinam grass [20, 26] | Plant response rating, Wheat [21, 23] | Plant response rating, Wheat [21, 26] | Plant response rating, Morningglory [22, 23] | Plant response rating, Morningglory [22, 26]
60: Rice plant response rating [3]
65: Plant response rating, Barnyardgrass ([1]; Rate 125 g/ha)
40: Plant response rating (scale 0 to 100), Flatsedge [2] | Plant response rating, Foxtail, Giant [11, 26]
80: Plant response rating, Flatsedge ([2]; Rate 125 g/ha) | Ducksalad plant response rating [4] | Plant response rating, Ducksalad ([4]; Rate 250 g/ha) | Plant response rating, Pigweed [10, 26] | Plant response rating, Lambsquarters [12, 23]
20: Plant response rating, Rice ([3]; Rate 250 g/ha) | Plant response rating (scale 0 to 100), Ducksalad [4] | Plant response rating (0 to 100), Ragweed, Common ([7]; preemergence)
85: Plant response rating, Barnyardgrass ([1]; Rate 250 g/ha)
50: Plant response rating, Sunflower [6] | Plant response rating, Surinam grass [8, 23]
95: Flatsedge plant response rating [2] | Plant response rating, Flatsedge ([2]; Rate 250 g/ha)
100: Barnyardgrass plant response rating [1] | Plant response rating (0 to 100), Surinam grass ([8]; preemergence) | Plant response rating, Lambsquarters [12, 26]

CC(C)(C)c1ccn(C2OCN(c3cccc(OC(F)F)c3)C2=O)n1 (centres unmarked) [Compound 133]
0: Plant response rating, Sunflower [5] | Plant response rating, Sunflower [6] | Plant response rating, Ragweed, Common [7, 23] | Plant response rating, Ragweed, Common [7, 24] | Plant response rating (0 to 100), Ragweed, Common ([7]; preemergence) | Plant response rating, Ragweed, Common [7, 25] | Plant response rating, Sunflower [9] | Plant response rating, Foxtail, Giant [11, 23] | Plant response rating, Corn [15, 23] | Plant response rating, Corn [15, 27] | Plant response rating, Blackgrass [16, 23] | Plant response rating, Blackgrass [16, 27] | Plant response rating, Velvetleaf [17, 23] | Plant response rating, Wild Oat [19, 23] | Plant response rating, Surinam grass [20, 23] | Plant response rating, Wheat [21, 23] | Plant response rating, Morningglory [22, 23]
40: Plant response rating, Crabgrass [14, 23] | Plant response rating, Surinam grass [20, 27]
80: Plant response rating, Pigweed [10, 23] | Plant response rating, Barnyardgrass [13, 23]
30: Plant response rating, Cocklebur [18, 27]
10: Plant response rating, Cocklebur [18, 23]
60: Plant response rating (scale 0 to 100), Rice [3]
90: Plant response rating, Barnyardgrass ([1]; Rate 125 g/ha) | Plant response rating (scale 0 to 100), Barnyardgrass [1] | Rice plant response rating [3] | Plant response rating, Rice ([3]; Rate 250 g/ha)
70: Plant response rating, Rice ([3]; Rate 125 g/ha)
100: Barnyardgrass plant response rating [1] | Plant response rating, Barnyardgrass ([1]; Rate 250 g/ha) | Flatsedge plant response rating [2] | Plant response rating, Flatsedge ([2]; Rate 125 g/ha) | Plant response rating, Flatsedge ([2]; Rate 250 g/ha) | Plant response rating (scale 0 to 100), Flatsedge [2] | Ducksalad plant response rating [4] | Plant response rating, Ducksalad ([4]; Rate 125 g/ha) | Plant response rating, Ducksalad ([4]; Rate 250 g/ha) | Plant response rating, Surinam grass [8, 23] | Plant response rating, Surinam grass [8, 24] | Plant response rating (0 to 100), Surinam grass ([8]; preemergence) | Plant response rating, Surinam grass [8, 25] | Plant response rating, Lambsquarters [12, 23] | Plant response rating, Barnyardgrass [13, 27]
50: Plant response rating (scale 0 to 100), Ducksalad [4]
